Earlier results as cited in publication PMC7731220, “Pharmacophore Modeling and 3D-QSAR Study of Indole and Isatin Derivatives as Antiamyloidogenic Agents Targeting Alzheimer’s Disease” (Molecules, 2020).

Target: Aβ40 (Homo sapiens, UniProt P05067)
Sequence (P05067 672-711 limits assumed): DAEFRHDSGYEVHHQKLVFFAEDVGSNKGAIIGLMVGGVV
Conditions: supplement, training set; 100 µM; cited from earlier work
In the case of `O=C1C(=CNNc2ccccc2)C(=O)c2ccccc21` [Compound S1], the “% inhib. @ 100 µM” value is given as 49±2.0%.
For `Cc1ccc(NNC=C2C(=O)c3ccccc3C2=O)cc1` [Compound S2], the “% inhib. @ 100 µM” value is given as 44±4.0%.
In the case of `O=c1c(=NNc2ccc(Cl)cc2)c(=O)c2ccccc12` [Compound S7], the “% inhib. @ 100 µM” value is given as 38±5.3%.
In the case of `O=C1C(/C=N/Nc2ccc(Cl)cc2)=Nc2ccccc21` [Compound S13], the “% inhib. @ 100 µM” value is given as 33±1.0%.
In the case of `O=C1C(/C=N/Nc2ccc(Cl)cc2)=Nc2ccc(Br)cc21` [Compound S19], the “% inhib. @ 100 µM” value is given as 46±7.0%.
For `O=C1C(/C=N/Nc2ccc(Cl)c(Cl)c2)=Nc2ccc(Br)cc21` [Compound S20], the “% inhib. @ 100 µM” value is given as 23±2.3%.
For `COc1ccc2c(c1)/C(=N/Nc1cccc(Cl)c1)C(=O)N2` [Compound S26], the “% inhib. @ 100 µM” value is listed as 72±1%.
For `COc1ccc2c(c1)/C(=N/Nc1ccc(Cl)cc1)C(=O)N2` [Compound S27], the “% inhib. @ 100 µM” value is listed as 43±2%.
For `COc1ccc2c(c1)/C(=N/Nc1ccc(C)cc1)C(=O)N2` [Compound S28], the “% inhib. @ 100 µM” value is listed as 29±4%.
For `COc1ccc2c(c1)/C(=N/Nc1ccc(C(C)(C)C)cc1)C(=O)N2` [Compound S30], the “% inhib. @ 100 µM” value is listed as 66±4%.
In the case of `COc1ccc2c(c1)/C(=N/Nc1cccc(C(C)(C)C)c1)C(=O)N2` [Compound S32], the “% inhib. @ 100 µM” value is listed as 56±2%.
In the case of `COc1cc2c(cc1OC)/C(=N/Nc1ccccc1Cl)C(=O)N2` [Compound S37], the “% inhib. @ 100 µM” value is listed as 70±3%.
For `O=C1Nc2ccccc2/C1=N/Nc1cccc(F)c1` [Compound S42], the “% inhib. @ 100 µM” value is given as 52±0.9%.
For `O=C1Nc2cc(Cl)c(F)cc2/C1=N/Nc1ccc(Cl)cc1` [Compound S43], the “% inhib. @ 100 µM” value is given as 28±3.7%.
In the case of `O=C1Nc2ccc(Br)cc2/C1=N/Nc1ccc(Cl)cc1` [Compound S44], the “% inhib. @ 100 µM” value is given as 63±4%.
For `O=C1Nc2ccc([N+](=O)[O-])cc2/C1=N/Nc1ccc(Cl)cc1` [Compound S45], the “% inhib. @ 100 µM” value is listed as 12±2%.
For `O=C1Nc2ccc(O)cc2/C1=N/Nc1ccccc1` [Compound S47], the “% inhib. @ 100 µM” value is listed as 62±3%.
In the case of `O=C1Nc2ccc(O)cc2/C1=N/Nc1ccc(O)cc1` [Compound S50], the “% inhib. @ 100 µM” value is listed as 61±2%.
For `O=C1Nc2ccccc2/C1=N/Nc1ccccc1Cl` [Compound S53], the “% inhib. @ 100 µM” value is given as 44±5%.
In the case of `O=C1Nc2ccccc2/C1=N/Nc1cccc(Cl)c1` [Compound S60], the “% inhib. @ 100 µM” value is given as 39±5%.
In the case of `O=C1Nc2ccccc2/C1=N/Nc1ccc(Cl)cc1` [Compound S61], the “% inhib. @ 100 µM” value is given as 24±4.9%.
In the case of `O=C1Nc2ccccc2/C1=N/Nc1ccc(OC(F)(F)F)cc1` [Compound S62], the “% inhib. @ 100 µM” value is listed as 57±3%.
In the case of `O=C1Nc2ccccc2/C1=N/Nc1cccc([N+](=O)[O-])c1` [Compound S63], the “% inhib. @ 100 µM” value is given as 29±1.2%.
In the case of `CC(C)c1ccc(N/N=C2\C(=O)Nc3ccccc32)cc1` [Compound S64], the “% inhib. @ 100 µM” value is listed as 64±4%.

Same assay, conditions: supplement, training set; 100 µM; ± SD; cited from earlier work
In the case of `CC(C)c1ccc(N/N=C2\C(=O)Nc3c(Br)cccc32)cc1` [Compound S80], the “% inhib. @ 100 µM” value is listed as 1±9.3%.

Same assay, conditions: supplement, training set; cited from earlier work
In the case of `CC(C)c1ccc(NNC=C2C(=O)c3ccccc3C2=O)cc1` [Compound S3], the IC50 is listed as 18 µM.
For `O=C1C(=CNNc2ccccc2Cl)C(=O)c2ccccc21` [Compound S4], the IC50 is listed as 32 µM.
For `O=C1C(=CNNc2cccc(Cl)c2)C(=O)c2ccccc21` [Compound S5], the IC50 is listed as 18 µM.
In the case of `O=C1C(=CNNc2ccc(Cl)cc2)C(=O)c2ccccc21` [Compound S6], the IC50 is listed as 23 µM.
In the case of `Cc1ccc(N/N=C/C2=Nc3ccccc3C2=O)cc1` [Compound S9], the IC50 is listed as 3.6 µM.
In the case of `CC(C)c1ccc(N/N=C/C2=Nc3ccccc3C2=O)cc1` [Compound S10], the IC50 is listed as 1.4 µM.
For `O=C1C(/C=N/Nc2ccccc2Cl)=Nc2ccccc21` [Compound S11], the IC50 is listed as 13 µM.
For `O=C1C(/C=N/Nc2cccc(Cl)c2)=Nc2ccccc21` [Compound S12], the IC50 is listed as 2.5 µM.
In the case of `O=C1C(/C=N/Nc2ccccc2)=Nc2ccc(Br)cc21` [Compound S14], the IC50 is given as 35 µM.
In the case of `Cc1ccc(N/N=C/C2=Nc3ccc(Br)cc3C2=O)cc1` [Compound S15], the IC50 is listed as 51 µM.
For `CC(C)c1ccc(N/N=C/C2=Nc3ccc(Br)cc3C2=O)cc1` [Compound S16], the IC50 is listed as 23 µM.
In the case of `O=C1C(/C=N/Nc2ccccc2Cl)=Nc2ccc(Br)cc21` [Compound S17], the IC50 is given as 7.8 µM.
In the case of `O=C1C(/C=N/Nc2cccc(Cl)c2)=Nc2ccc(Br)cc21` [Compound S18], the IC50 is given as 4.4 µM.
For `COc1ccc(N/N=C2\C(=O)Nc3ccccc32)cc1` [Compound S21], the IC50 is listed as 13 µM.
In the case of `COc1cc2c(cc1OC)/C(=N/Nc1ccccc1)C(=O)N2` [Compound S25], the IC50 is given as 63 µM.
In the case of `COc1ccc2c(c1)/C(=N/Nc1ccc(C(C)(C)C)cc1)C(=O)N2` [Compound S30], the IC50 is given as 15 µM.
In the case of `COc1ccc(N/N=C2\C(=O)Nc3ccc(OC)cc32)cc1` [Compound S33], the IC50 is given as 3.7 µM.
In the case of `COc1ccc2c(c1)NC(=O)/C2=N\Nc1ccc(C(C)C)cc1` [Compound S36], the IC50 is listed as 7.1 µM.
For `COc1cc2c(cc1OC)/C(=N/Nc1cccc(Cl)c1)C(=O)N2` [Compound S38], the IC50 is listed as 17 µM.
For `COc1cc2c(cc1OC)/C(=N/Nc1ccc(Cl)cc1)C(=O)N2` [Compound S39], the IC50 is given as 33 µM.
For `COc1cc2c(cc1OC)/C(=N/Nc1ccc(C(C)C)cc1)C(=O)N2` [Compound S40], the IC50 is given as 4.4 µM.
In the case of `COc1ccc(N/N=C2\C(=O)Nc3cc(OC)c(OC)cc32)cc1` [Compound S41], the IC50 is given as 22 µM.
In the case of `O=C1Nc2ccccc2/C1=N/Nc1ccc(O)cc1` [Compound S46], the IC50 is listed as 9.3 µM.
For `O=C1Nc2ccc(O)cc2/C1=N/Nc1cccc(Cl)c1` [Compound S48], the IC50 is listed as 18 µM.
For `CC(C)c1ccc(N/N=C2\C(=O)Nc3ccc(O)cc32)cc1` [Compound S49], the IC50 is listed as 21 µM.
For `O=C1Nc2cc(O)ccc2/C1=N/Nc1ccccc1` [Compound S51], the IC50 is given as 22 µM.
For `CC(C)c1ccc(N/N=C2\C(=O)Nc3cc(O)ccc32)cc1` [Compound S52], the IC50 is listed as 6 µM.
For `O=C1Nc2cc(O)c(O)cc2/C1=N/Nc1ccccc1` [Compound S54], the IC50 is listed as 4.3 µM.
For `O=C1Nc2cc(O)c(O)cc2/C1=N/Nc1ccccc1Cl` [Compound S55], the IC50 is listed as 11 µM.
In the case of `O=C1Nc2cc(O)c(O)cc2/C1=N/Nc1ccc(Cl)cc1` [Compound S57], the IC50 is given as 17 µM.
In the case of `CC(C)c1ccc(N/N=C2\C(=O)Nc3cc(O)c(O)cc32)cc1` [Compound S58], the IC50 is listed as 1.6 µM.
In the case of `O=C1Nc2cc(O)c(O)cc2/C1=N/Nc1ccc(O)cc1` [Compound S59], the IC50 is listed as 24 µM.
For `COc1ccc2c(c1)/C(=N/Nc1nc(CCl)cs1)C(=O)N2` [Compound S67], the IC50 is listed as 13 µM.
In the case of `COc1ccc2c(c1)/C(=N/Nc1nc(-c3cccc(O)c3)cs1)C(=O)N2` [Compound S70], the IC50 is given as 16 µM.
In the case of `COc1cccc(-c2csc(N/N=C3\C(=O)Nc4ccc(OC)cc43)n2)c1` [Compound S71], the IC50 is given as 34 µM.
For `COc1ccc2c(c1)/C(=N/Nc1nc(-c3cccc(Br)c3)cs1)C(=O)N2` [Compound S72], the IC50 is given as 40 µM.
For `COc1ccc2c(c1)/C(=N/N(C)c1ccc(C(C)C)cc1)C(=O)N2C` [Compound S73], the IC50 is given as 11 µM.
For `COc1ccc2c(c1)/C(=N/Nc1cccc3ccccc13)C(=O)N2` [Compound S87], the IC50 is given as 28 µM.
In the case of `COc1ccc2c(c1)/C(=N/N=C/c1ccc(C(C)C)cc1)C(=O)N2` [Compound S89], the IC50 is given as 6.7 µM.
In the case of `COc1ccc2c(c1)/C(=N/N=C/c1cccc(Cl)c1)C(=O)N2` [Compound S90], the IC50 is given as 11 µM.
For `Oc1ccc2[nH]cc(/C=N/Nc3ccc(Cl)cc3)c2c1` [Compound S92], the IC50 is listed as 21 µM.

Same assay, conditions: supplement; 100 µM; value marked (II); cited from earlier work
In the case of `O=C1Nc2ccccc2/C1=N/Nc1ccccc1` [Compound S31], the “% inhib. @ 100 µM (II)” value is given as 61±0.7%.
